Test results taken from PMC5371667, “Targeting Bile Acid Receptors: Discovery of a Potent and Selective Farnesoid X Receptor Agonist as a New Lead in the Pharmacological Approach to Liver Diseases” (Frontiers in Pharmacology, 2017).

What was measured:
[1] = biological target: T1, PPARα (Homo sapiens, UniProt Q07869); assay: PPARα transactivation on HepG2 cells (GAL4 LBD reporter); type: cell-based; settings: 10 μM
T1 construct: expressed in transfected cells; host or cells: HepG2
T1 sequence (Q07869 239-466 limits assumed): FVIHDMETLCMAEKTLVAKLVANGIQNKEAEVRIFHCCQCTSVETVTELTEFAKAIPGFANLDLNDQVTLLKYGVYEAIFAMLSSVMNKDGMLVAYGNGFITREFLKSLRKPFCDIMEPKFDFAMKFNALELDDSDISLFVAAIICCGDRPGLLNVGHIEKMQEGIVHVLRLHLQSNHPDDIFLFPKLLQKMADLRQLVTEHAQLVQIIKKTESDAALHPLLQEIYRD
Procedure: (§1) To evaluate LXRα and LXRβ mediated transactivation, HepG2 cells were transfected with 200 ng of the reporter vector p(UAS)5XTKLuc, 100 ng of a vector containing the ligand binding domain of LXRα or LXRβ cloned upstream of the GAL4-DNA binding domain (i.e., pSG5-LXRαLBD-GAL4DBD or pSG5-LXRβLBD-GAL4DBD) and 100 of pGL4.70 Renilla. At 24 h post-transfection, cells were stimulated 18 h with 10 μM compound 2 and GW3965 (GW, 10 μM) was used as positive control. To investigate the PPARα and PPARγ mediated transactivation, HepG2 cells were transiently transfected with 200 ng reporter vector p(UAS)9XTKLuc, 100 ng of a vector containing the ligand binding domain of PPARα or PPARγ cloned upstream of the GAL4-DNA binding domain (i.e., pSG5- PPARαLBD-GAL4DBD or pSG5- PPARγLBD-GAL4DBD) and 100 of pGL4.70 Renilla. For PPARα transactivation, cells were stimulated with 10 μM compound 2 and gemfibrozil (GEM, 10 μM) was used as positive control. For PPARγ transactivation, cells were stimulated with 10 μM compound 2 and rosiglitazone (ROSI, 100 nM) was used as a positive control. Luciferase activities were assayed and normalized with Renilla activities.

[2] = biological target: T2, LXRα (Homo sapiens, UniProt Q13133); assay: LXRα transactivation on HepG2 cells (GAL4 LBD reporter); type: cell-based; settings: 10 μM
T2 construct: expressed in transfected cells; host or cells: HepG2
T2 sequence (Q13133 209-447 limits assumed): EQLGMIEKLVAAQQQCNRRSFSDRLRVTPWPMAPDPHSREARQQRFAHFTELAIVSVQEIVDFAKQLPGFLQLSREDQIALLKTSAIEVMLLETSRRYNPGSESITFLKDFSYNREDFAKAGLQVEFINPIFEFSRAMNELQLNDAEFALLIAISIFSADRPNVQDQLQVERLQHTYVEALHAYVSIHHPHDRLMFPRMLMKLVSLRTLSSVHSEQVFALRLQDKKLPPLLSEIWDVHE
Procedure: as §1

[3] = biological target: T3, LXRβ (Homo sapiens, UniProt P55055); assay: LXRβ transactivation on HepG2 cells (GAL4 LBD reporter); type: cell-based; settings: 10 μM
T3 construct: expressed in transfected cells; host or cells: HepG2
T3 sequence (P55055 222-460 limits assumed): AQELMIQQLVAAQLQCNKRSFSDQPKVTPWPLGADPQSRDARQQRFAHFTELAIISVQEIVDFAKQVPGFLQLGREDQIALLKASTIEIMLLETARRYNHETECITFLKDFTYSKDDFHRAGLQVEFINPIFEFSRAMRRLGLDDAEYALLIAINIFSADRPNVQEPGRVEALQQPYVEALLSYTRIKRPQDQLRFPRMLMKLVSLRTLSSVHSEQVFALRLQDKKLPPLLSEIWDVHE
Procedure: as §1

[4] = biological target: T4, GST-fusion FXR-LBD (Homo sapiens, UniProt Q96RI1); assay: Alpha Screen coactivator (SRC-1 peptide) recruitment assay; type: biochemical
T4 construct: 10 nM of purified GST-tagged FXR-LBD protein
T4 sequence (Q96RI1 262-486 limits assumed): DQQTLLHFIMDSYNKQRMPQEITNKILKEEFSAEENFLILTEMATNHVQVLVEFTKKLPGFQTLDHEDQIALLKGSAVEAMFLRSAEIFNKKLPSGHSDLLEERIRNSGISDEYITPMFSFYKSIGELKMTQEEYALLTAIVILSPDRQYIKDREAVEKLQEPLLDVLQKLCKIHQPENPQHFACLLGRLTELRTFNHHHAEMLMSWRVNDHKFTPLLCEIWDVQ
Procedure: Activation of FXR was determined by Alpha Screen Technology in a Coactivator Recruitment Assay. Anti-GST-coated acceptor beads were used to capture the GST-fusion FXR-LBD, whereas the biotinylated-SRC-1 peptide was captured by the streptavidin donor beads. Upon illumination at 680 nm, chemical energy is transferred from donor to acceptor beads across the complex streptavidin-donor/[…]-LBD/anti-GST-acceptor and a signal is produced. The assay was performed in white, low-volume, 384-well Optiplates (PerkinElmer) using a final volume of 25 μL containing final concentrations of 10 nM of purified GST-tagged FXR-LBD protein, 30 nM biotinylated SRC-1 peptide, 20 μg/mL anti-GST acceptor beads, and 10 μg/mL of streptavidin donor bead (PerkinElmer). The assay buffer contained 50 mM Tris (pH 7.4), 50 mM KCl and 1 mM DTT. The stimulation times with 1 μL of tested compound (dissolved in 50% DMSO/H2O) were fixed to 30 min at room temperature. The concentration of DMSO in each well was maintained at a final concentration of 2%. After the addition of the detection mix (acceptor and donor beads), the plates were incubated in the dark for 3 h at room temperature and then were read in an Envision microplate analyzer (PerkinElmer).

[5] = biological target: T5, PPARγ (Homo sapiens, UniProt P37231); assay: PPARγ transactivation on HepG2 cells (GAL4 LBD reporter); type: cell-based; settings: 10 μM
T5 construct: expressed in transfected cells; host or cells: HepG2
T5 sequence (P37231 238-503 limits assumed): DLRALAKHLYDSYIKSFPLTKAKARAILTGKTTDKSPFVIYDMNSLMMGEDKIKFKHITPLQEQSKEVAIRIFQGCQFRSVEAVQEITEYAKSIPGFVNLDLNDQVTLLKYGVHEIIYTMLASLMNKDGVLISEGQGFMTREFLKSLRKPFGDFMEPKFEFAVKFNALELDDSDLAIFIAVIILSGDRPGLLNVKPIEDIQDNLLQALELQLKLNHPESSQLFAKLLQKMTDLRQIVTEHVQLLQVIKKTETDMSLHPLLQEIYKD
Procedure: as §1

With `CC[C@H]1[C@@H](O)[C@@H]2[C@H](CC[C@]3(C)[C@@H]([C@H](C)CCC(=O)O)CC[C@@H]23)[C@@]2(C)CC[C@H](N=[N+]=[N-])C[C@@H]12` [compound 2, 3β-azido-6α-ethyl-7α-hydroxy-5β-cholan-24-oic acid] the PPARα transactivation [1] was “unable in inducing”, the LXRα transactivation [2] was “unable in inducing” and the LXRβ transactivation [3] was “unable in inducing”. The EC50 ([4]; recruitment of SRC-1 co-activator peptide, Alfa Screen, Table 1) was 610 ± 90 nM, the Efficacy ([4]; recruitment of SRC-1 co-activator peptide, Alfa Screen, Table 1, 6-ECDCA = 100) was 90 and the “efficacy respect to 6-ECDCA” value ([4]; recruitment of SRC-1 peptide) was 90%. The PPARγ transactivation [5] was “unable in inducing”.
